From patent publication US9439899B2, “Cancer therapy using a combination of HSP90 inhibitors with topoisomerase I inhibitors” (Synta Pharmaceuticals Corp., priority 2011, dated 2016) come the findings set out here.

This assay relates to HCT-116 colorectal cancer cells. In words: Cell viability (alamarBlue) assay, single agents and combinations, in HCT-116 colorectal cancer cells. Format: cell-based. Particulars: Homo sapiens; HCT-116 cells exposed to drug for 72 hr; 1.5-fold serial dilution; four parameter logistic fit; read-out: half maximal inhibitory concentration (IC50), cell viability. Here is the method:
Human HCT-116 colorectal cancer cells (CRC) were purchased from the American Type Culture Collection (Manassas, Va.) and grown in McCoy's 5a media (Sigma), following ATCC recommendations, in the presence of fetal bovine serum (10%), 2 mM L-glutamine and antibiotics (100 IU/ml penicillin and 100 μg/ml streptomycin, Sigma). Cells were maintained at 37° C., 5% CO2 atmosphere.
Cell viability was measured using the alamarBlue assay (Invitrogen). In brief, cells were plated in 96-well plates in triplicate at 5K cells per well and incubated at 37° C., 5% CO2 atmosphere for 24 hr prior to the addition of drug or vehicle (0.3% DMSO) to the culture medium. After 72 hr, 10 μl/well alamarBlue was added to the wells and incubated for an additional 3 hr at 37° C., 5% CO2 atmosphere. Fluorescence (560EX/590EM […]) was measured with a SpectraMax microplate reader (Molecular Devices) and the resulting data were used to calculate cell viability, normalized to vehicle control. […]
Combinations between ganetespib and irinotecan were then performed in HCT-116 cells concurrently based on the IC50 for each agent in matrix format with 54 combination pairs for each drug. The combined drugs, as well as each drug alone, were incubated with the cells for 3 days and the surviving fraction of cells relative to control was determined using the alamarBlue assay.
A general note: Resazurin is reduced to fluorescent resorufin, in cell work by metabolically active cells.

The structures appear in SMILES notation.

Consider `CC(C)c1cc(-c2nnc(O)n2-c2ccc3c(ccn3C)c2)c(O)cc1O` [ganetespib, 3-(2,4-DIHYDROXY-5- ISOPROPYL-PHENYL)-4-(1- METHYL-INDOL-5-YL)-5- HYDROXY-[1,2,4] TRIAZOLE], for which the IC50 was roughly 32 nM.
In the case of `CCc1c2c(nc3ccc(OC(=O)N4CCC(N5CCCCC5)CC4)cc13)-c1cc3c(c(=O)n1C2)COC(=O)[C@]3(O)CC` [irinotecan], the IC50 was roughly 2300 nM.
